Laboratory results published in patent publication US20260262643A1, “HERBICIDAL BENZOXAZINES” (FMC CORPORATION, priority 2022, published 2026).

Assays:
kochia [1] = assay: Test C postemergence; assay type: in vivo, Bassia scoparia; conditions: 10 days
Summary of the method: (§1)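 Pre: seeds in loam/sand, directed soil spray. Post: 1–2 leaf plants, 2–10 cm. Cmpd in non-phytotoxic solvent + surfactant. Greenhouse 10 d; visual rating vs untreated, 0 = none, 100 = complete control.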

blackgrass [2] = assay: Test C postemergence; assay type: in vivo, Alopecurus myosuroides; conditions: 10 days
Summary of the method: as §1

corn [3] = assay: Test C postemergence; assay type: in vivo, Zea mays; conditions: 10 days
Summary of the method: as §1

barnyardgrass [4] = assay: Test C postemergence; assay type: in vivo, Echinochloa crusgalli; conditions: 10 days
Summary of the method: as §1

barnyardgrass [5] = assay: Test D flooded paddy test; assay type: in vivo, Echinochloa crus-galli; conditions: 250 g ai/ha, applied to paddy water, visual rating after 13 to 14 days, scale 0 to 100 (0 no effect, 100 complete control)
Summary of the method: (§2)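 Plants at the 2-leaf stage were grown in pots flooded to 3 cm, and compound was applied directly into the paddy water, with depth kept throughout. After 13–14 days in a greenhouse, injury was rated visually against untreated controls on a 0–100 scale (100 = complete control); a dash means not tested.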

kochia [6] = assay: Test C preemergence; assay type: in vivo, Bassia scoparia; conditions: 0 to 100 scale (0 no effect, 100 complete control); for Plant response rating, Kochia: Preemergence, 500 g ai/ha, visual rating after 10 days
Summary of the method: as §1

ryegrass, Italian [7] = assay: Test C postemergence; assay type: in vivo, Lolium multiflorum; conditions: 10 days
Summary of the method: as §1

pigweed, palmer [8] = assay: Test C postemergence; assay type: in vivo, Amaranthus palmeri; conditions: 10 days
Summary of the method: as §1

barnyardgrass [9] = assay: Test C preemergence; assay type: in vivo, Echinochloa crusgalli; conditions: 0 to 100 scale (0 no effect, 100 complete control); for Plant response rating, Barnyardgrass: Preemergence, 500 g ai/ha, visual rating after 10 days; for Barnyardgrass plant response rating: Test C, preemergence, 125 g ai/ha
Summary of the method: as §1

green foxtail [10] = assay: Test C preemergence; assay type: in vivo, Setaria viridis; conditions: 0 to 100 scale (0 no effect, 100 complete control); for Plant response rating, Foxtail, Green: Preemergence, 500 g ai/ha, visual rating after 10 days; for Foxtail, Green plant response rating: Test C, preemergence, 125 g ai/ha
Summary of the method: as §1

soybean [11] = assay: Test C preemergence; assay type: in vivo, Glycine max; conditions: 0 to 100 scale (0 no effect, 100 complete control); for Plant response rating, Soybean: Preemergence, 500 g ai/ha, visual rating after 10 days; for Soybean plant response rating: Test C, preemergence, 125 g ai/ha
Summary of the method: as §1

wheat [12] = assay: Test C preemergence; assay type: in vivo, Triticum aestivum; conditions: 0 to 100 scale (0 no effect, 100 complete control); for Plant response rating, Wheat: Preemergence, 500 g ai/ha, visual rating after 10 days; for Wheat plant response rating: Test C, preemergence, 125 g ai/ha
Summary of the method: as §1

rice = assay: Test D flooded paddy test; assay type: in vivo, Oryza sativa; conditions: 250 g ai/ha, applied to paddy water, visual rating after 13 to 14 days, scale 0 to 100 (0 no effect, 100 complete control)
Summary of the method: as §2

ragweed [13] = assay: Test C preemergence; assay type: in vivo, Ambrosia artemisiifolia; conditions: 0 to 100 scale (0 no effect, 100 complete control); for Plant response rating, Ragweed: Preemergence, 500 g ai/ha, visual rating after 10 days; for Ragweed plant response rating: Test C, preemergence, 125 g ai/ha
Summary of the method: as §1

oat, wild [14] = assay: Test C preemergence; assay type: in vivo, Avena fatua; conditions: 0 to 100 scale (0 no effect, 100 complete control); for Plant response rating, Oat, Wild: Preemergence, 500 g ai/ha, visual rating after 10 days; for Oat, Wild plant response rating: Test C, preemergence, 125 g ai/ha
Summary of the method: as §1

corn [15] = assay: Test C preemergence; assay type: in vivo, Zea mays; conditions: 0 to 100 scale (0 no effect, 100 complete control); for Plant response rating, Corn: Preemergence, 500 g ai/ha, visual rating after 10 days; for Corn plant response rating: Test C, preemergence, 125 g ai/ha
Summary of the method: as §1

wheat [16] = assay: Test C postemergence; assay type: in vivo, Triticum aestivum; conditions: 10 days
Summary of the method: as §1

sedge, umbrella = assay: Test D flooded paddy test; assay type: in vivo, Cyperus difformis; conditions: 250 g ai/ha, applied to paddy water, visual rating after 13 to 14 days, scale 0 to 100 (0 no effect, 100 complete control)
Summary of the method: as §2

pigweed, palmer [17] = assay: Test C preemergence; assay type: in vivo, Amaranthus palmeri; conditions: 0 to 100 scale (0 no effect, 100 complete control); for Plant response rating, Pigweed, Palmer: Preemergence, 500 g ai/ha, visual rating after 10 days; for Pigweed, Palmer plant response rating: Test C, preemergence, 125 g ai/ha
Summary of the method: as §1

galium = assay: Test C postemergence; assay type: in vivo, Galium aparine; conditions: 10 days
Summary of the method: as §1

oat, wild [18] = assay: Test C postemergence; assay type: in vivo, Avena fatua; conditions: 10 days
Summary of the method: as §1

ducksalad = assay: Test D flooded paddy test; assay type: in vivo, Heteranthera limosa; conditions: 250 g ai/ha, applied to paddy water, visual rating after 13 to 14 days, scale 0 to 100 (0 no effect, 100 complete control)
Summary of the method: as §2

green foxtail [19] = assay: Test C postemergence; assay type: in vivo, Setaria viridis; conditions: 10 days
Summary of the method: as §1

horseweed = assay: Test C postemergence; assay type: in vivo, Erigeron canadensis; conditions: 10 days
Summary of the method: as §1

blackgrass [20] = assay: Test C preemergence; assay type: in vivo, Alopecurus myosuroides; conditions: 0 to 100 scale (0 no effect, 100 complete control); for Plant response rating, Blackgrass: Preemergence, 500 g ai/ha, visual rating after 10 days; for Blackgrass plant response rating: Test C, preemergence, 125 g ai/ha
Summary of the method: as §1

ryegrass, Italian [21] = assay: Test C preemergence; assay type: in vivo, Lolium multiflorum; conditions: 0 to 100 scale (0 no effect, 100 complete control); for Plant response rating, Ryegrass, Italian: Preemergence, 500 g ai/ha, visual rating after 10 days; for Ryegrass, Italian plant response rating: Test C, preemergence, 125 g ai/ha
Summary of the method: as §1

soybean [22] = assay: Test C postemergence; assay type: in vivo, Glycine max; conditions: 10 days
Summary of the method: as §1

ragweed [23] = assay: Test C postemergence; assay type: in vivo, Ambrosia artemisiifolia; conditions: 10 days
Summary of the method: as §1

[24] = 125 g ai/ha, postemergence, 0 to 100 scale, 0 no effect, 100 complete control
[25] = Postemergence, 500 g ai/ha, visual 0 to 100 scale (0 no effect, 100 complete control)

COC[C@H]1CN(C(=O)c2cc(-n3cncn3)ccc2C)c2cccc(Cl)c2O1 [Compound 263]
30: Plant response rating, Corn (corn [3]; [24]) | Plant response rating, Ragweed (ragweed [13]) | Oat, Wild plant response rating (oat, wild [14]) | Plant response rating, Wheat (wheat [16]; [24])
90: Plant response rating, Blackgrass (blackgrass [2]; [25]) | Plant response rating, Corn (corn [3]; [25]) | Plant response rating, Barnyardgrass (barnyardgrass [4]; [25]) | Plant response rating, Ryegrass, Italian (ryegrass, Italian [7]; [25]) | Plant response rating, Barnyardgrass (barnyardgrass [9]) | Foxtail, Green plant response rating (green foxtail [10]) | Plant response rating, Soybean (soybean [11]) | Plant response rating, Foxtail, Green (green foxtail [19]; [25]) | Plant response rating, Blackgrass (blackgrass [20]) | Plant response rating, Ryegrass, Italian (ryegrass, Italian [21]) | Plant response rating, Ragweed (ragweed [23]; [25])
20: Plant response rating, Barnyardgrass (Flood) (barnyardgrass [5]) | Wheat plant response rating (wheat [12]) | Corn plant response rating (corn [15]) | Plant response rating, Horseweed (horseweed; [25])
85: Plant response rating, Sedge, Umbrella (Flood) (sedge, umbrella)
10: Plant response rating, Oat, Wild (oat, wild [18]; [24])
60: Plant response rating, Corn (corn [15])
100: Plant response rating, Foxtail, Green (green foxtail [10]) | Plant response rating, Pigweed, Palmer (pigweed, palmer [17]) | Plant response rating, Galium (galium; [24]) | Plant response rating, Galium (galium; [25]) | Plant response rating, Soybean (soybean [22]; [24]) | Plant response rating, Soybean (soybean [22]; [25])
70: Plant response rating, Kochia (kochia [1]; [24]) | Plant response rating, Kochia (kochia [1]; [25]) | Plant response rating, Barnyardgrass (barnyardgrass [4]; [24]) | Plant response rating, Kochia (kochia [6]) | Barnyardgrass plant response rating (barnyardgrass [9]) | Plant response rating, Oat, Wild (oat, wild [14]) | Pigweed, Palmer plant response rating (pigweed, palmer [17])
80: Plant response rating, Blackgrass (blackgrass [2]; [24]) | Plant response rating, Ryegrass, Italian (ryegrass, Italian [7]; [24]) | Plant response rating, Pigweed, Palmer (pigweed, palmer [8]; [25]) | Soybean plant response rating (soybean [11]) | Plant response rating, Wheat (wheat [16]; [25]) | Plant response rating, Foxtail, Green (green foxtail [19]; [24]) | Ryegrass, Italian plant response rating (ryegrass, Italian [21])
50: Plant response rating, Oat, Wild (oat, wild [18]; [25]) | Blackgrass plant response rating (blackgrass [20])
0: Plant response rating, Rice (Flood) (rice) | Ragweed plant response rating (ragweed [13]) | Plant response rating, Horseweed (horseweed; [24])
40: Plant response rating, Pigweed, Palmer (pigweed, palmer [8]; [24]) | Plant response rating, Wheat (wheat [12]) | Plant response rating, Ragweed (ragweed [23]; [24])
65: Plant response rating, Ducksalad (Flood) (ducksalad)

COC[C@H]1CN(C(=O)c2cc(-n3cnc(C(C)(C)C)n3)ccc2C)c2cccc(Cl)c2O1 [Compound 264]
90: Plant response rating, Barnyardgrass (barnyardgrass [4]; [25]) | Kochia plant response rating (kochia [6]; Test C, preemergence, 125 g ai/ha) | Plant response rating, Ryegrass, Italian (ryegrass, Italian [7]; [25]) | Plant response rating, Pigweed, Palmer (pigweed, palmer [8]; [24]) | Plant response rating, Pigweed, Palmer (pigweed, palmer [8]; [25]) | Soybean plant response rating (soybean [11]) | Plant response rating, Oat, Wild (oat, wild [14]) | Oat, Wild plant response rating (oat, wild [14]) | Plant response rating, Foxtail, Green (green foxtail [19]; [25]) | Plant response rating, Ryegrass, Italian (ryegrass, Italian [21]) | Ryegrass, Italian plant response rating (ryegrass, Italian [21]) | Plant response rating, Ragweed (ragweed [23]; [25])
30: Plant response rating, Corn (corn [3]; [24]) | Corn plant response rating (corn [15]) | Plant response rating, Wheat (wheat [16]; [25])
60: Plant response rating, Blackgrass (blackgrass [2]; [25]) | Plant response rating, Wheat (wheat [12]) | Ragweed plant response rating (ragweed [13]) | Plant response rating, Horseweed (horseweed; [25])
80: Plant response rating, Kochia (kochia [1]; [24]) | Plant response rating, Corn (corn [3]; [25]) | Plant response rating, Soybean (soybean [11]) | Plant response rating, Ragweed (ragweed [13]) | Plant response rating, Sedge, Umbrella (Flood) (sedge, umbrella) | Plant response rating, Blackgrass (blackgrass [20]) | Plant response rating, Ragweed (ragweed [23]; [24])
100: Plant response rating, Kochia (kochia [1]; [25]) | Plant response rating, Kochia (kochia [6]) | Plant response rating, Barnyardgrass (barnyardgrass [9]) | Plant response rating, Foxtail, Green (green foxtail [10]) | Foxtail, Green plant response rating (green foxtail [10]) | Plant response rating, Pigweed, Palmer (pigweed, palmer [17]) | Pigweed, Palmer plant response rating (pigweed, palmer [17]) | Plant response rating, Galium (galium; [24]) | Plant response rating, Galium (galium; [25]) | Plant response rating, Soybean (soybean [22]; [24]) | Plant response rating, Soybean (soybean [22]; [25])
70: Barnyardgrass plant response rating (barnyardgrass [9])
10: Plant response rating, Rice (Flood) (rice) | Plant response rating, Oat, Wild (oat, wild [18]; [24])
35: Plant response rating, Barnyardgrass (Flood) (barnyardgrass [5])
50: Plant response rating, Barnyardgrass (barnyardgrass [4]; [24]) | Plant response rating, Ryegrass, Italian (ryegrass, Italian [7]; [24]) | Plant response rating, Corn (corn [15]) | Plant response rating, Oat, Wild (oat, wild [18]; [25])
40: Plant response rating, Blackgrass (blackgrass [2]; [24]) | Blackgrass plant response rating (blackgrass [20])
20: Plant response rating, Wheat (wheat [16]; [24]) | Plant response rating, Foxtail, Green (green foxtail [19]; [24]) | Plant response rating, Horseweed (horseweed; [24])
0: Wheat plant response rating (wheat [12])
75: Plant response rating, Ducksalad (Flood) (ducksalad)
